Patent US11453660B2, “Androgen receptor and glucocorticoid receptor modulators” (ONCOSTELLAE, S.L., priority 2017, dated 2022)
One block for each compound: values may come before it.

Tests used:
[1] = target: T1, Human Glucocorticoid Receptor (Homo sapiens, UniProt P04150); assay: Competition Binding in IM-9 Human Glucocorticoid Receptor (GR IM-9); conditions: cytosol from IM-9 cell line, 1.5 nM [3H]-Dexamethasone, 4° C. for 6 hours
T1 construct: endogenous in cells; host or cells: cytosol from IM-9 cell line
T1 sequence (P04150 1-777): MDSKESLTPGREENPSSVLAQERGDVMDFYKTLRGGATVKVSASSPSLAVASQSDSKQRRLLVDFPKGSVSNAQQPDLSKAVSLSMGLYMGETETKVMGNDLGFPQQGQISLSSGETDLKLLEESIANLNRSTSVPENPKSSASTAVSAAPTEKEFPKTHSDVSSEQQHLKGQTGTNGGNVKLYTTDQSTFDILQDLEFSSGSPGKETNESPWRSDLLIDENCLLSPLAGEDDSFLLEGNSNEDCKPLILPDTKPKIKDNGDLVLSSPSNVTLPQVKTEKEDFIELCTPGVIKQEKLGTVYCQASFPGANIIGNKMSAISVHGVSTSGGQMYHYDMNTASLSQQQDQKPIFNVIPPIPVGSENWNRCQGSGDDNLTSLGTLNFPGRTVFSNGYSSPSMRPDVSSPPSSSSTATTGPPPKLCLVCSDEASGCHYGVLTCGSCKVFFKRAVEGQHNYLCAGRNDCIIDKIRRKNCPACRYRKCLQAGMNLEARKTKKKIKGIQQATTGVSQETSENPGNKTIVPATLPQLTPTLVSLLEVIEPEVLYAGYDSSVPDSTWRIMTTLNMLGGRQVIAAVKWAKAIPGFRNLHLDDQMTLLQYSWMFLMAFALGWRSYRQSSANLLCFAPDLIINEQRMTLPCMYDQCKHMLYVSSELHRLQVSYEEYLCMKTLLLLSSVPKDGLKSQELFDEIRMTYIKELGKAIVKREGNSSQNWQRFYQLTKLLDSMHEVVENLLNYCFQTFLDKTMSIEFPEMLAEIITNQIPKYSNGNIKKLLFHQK
In short: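 Radioligand competition using 100 μg IM-9 cell cytosol and 1.5 nM [3H]-dexamethasone, incubated 6 h at 4° C in TES/molybdate buffer, pH 7.4. Filtration on PEI-treated GF/B filters, scintillation counting; nonspecific binding defined with 10 μM triamcinolone.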

[2] = target: T2, human androgen receptor (Homo sapiens, UniProt P10275, T878A); assay: Human Androgen Receptor Binding (radioligand binding, LnCap prostate cancer cell line); conditions: LnCap cells, displacement of [^3H]-methyltrienolone, 2 hours at 37° C.; read-out: AR LNCaP
T2 construct: endogenously expressed human androgen receptor using the LnCap prostate cancer cell line; endogenous in cells; host or cells: LNCaP prostate cancer cell line (whole cells)
T2 sequence (P10275 1-920 T878A): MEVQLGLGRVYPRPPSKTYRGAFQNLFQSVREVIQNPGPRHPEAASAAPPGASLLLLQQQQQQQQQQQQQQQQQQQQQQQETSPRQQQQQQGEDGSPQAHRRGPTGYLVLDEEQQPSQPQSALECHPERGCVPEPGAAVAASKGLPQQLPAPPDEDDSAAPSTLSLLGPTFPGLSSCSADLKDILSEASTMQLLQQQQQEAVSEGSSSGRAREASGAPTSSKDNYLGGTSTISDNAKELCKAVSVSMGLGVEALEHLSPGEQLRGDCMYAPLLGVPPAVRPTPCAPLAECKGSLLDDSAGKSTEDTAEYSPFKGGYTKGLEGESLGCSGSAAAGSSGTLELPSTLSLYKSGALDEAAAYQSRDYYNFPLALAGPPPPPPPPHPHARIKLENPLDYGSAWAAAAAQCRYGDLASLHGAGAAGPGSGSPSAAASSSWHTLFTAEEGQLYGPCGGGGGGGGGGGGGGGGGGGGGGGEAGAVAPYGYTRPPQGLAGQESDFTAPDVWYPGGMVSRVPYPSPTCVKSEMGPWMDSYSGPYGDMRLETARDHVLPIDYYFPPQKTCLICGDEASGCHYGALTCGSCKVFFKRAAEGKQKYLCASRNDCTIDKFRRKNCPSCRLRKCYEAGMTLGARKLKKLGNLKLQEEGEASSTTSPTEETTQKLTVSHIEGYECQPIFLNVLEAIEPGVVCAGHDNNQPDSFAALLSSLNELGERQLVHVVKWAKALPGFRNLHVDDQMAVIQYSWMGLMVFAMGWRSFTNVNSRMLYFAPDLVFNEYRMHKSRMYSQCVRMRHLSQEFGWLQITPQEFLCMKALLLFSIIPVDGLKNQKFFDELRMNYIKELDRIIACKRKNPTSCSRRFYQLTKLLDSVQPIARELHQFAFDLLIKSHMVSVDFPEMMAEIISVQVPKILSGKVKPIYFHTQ
Experimental: Human Androgen Receptor Binding
Radioligand binding studies were carried out on endogenously expressed human androgen receptor using the LnCap prostate cancer cell line. The test is based on measuring radioactively labelled AR ligand [^3H]-methyltrienolone that gets displaced by increasing concentrations of test compound. The test is performed in 96-well plates (Falcon, #353072). Positive and negative controls are also required in each analyzed plate to evaluate the total and non-specific binding binding of the radioligand to the receptor. Cells (60000 per well) were incubated for 24 hours before executing the experiment at 37° C. and in a 5% CO2 atmosphere. Medium was replaced by assay buffer (RPMI-640 (ATCC #30-2001) supplemented with 0.1% bovine serum albumin (Sigma #8806-56) and Triamcinolone acetonide (Sigma #T6501)). The compounds at the desired concentrations and [^3H]methyltrienolone (Perkin Elmer #NET590) were added to the wells.
In order to obtain a dose-response curve and calculate the potency of inhibition (expressed as IC50) for AR, a series of 1:10 dilutions in test in 1× buffer from 10 μM to 0.1 nM for each compound was carried out.
Cells were incubated for 2 hours at 37° C. in a 5% CO2 atmosphere and then washed twice with ice-cold HBSS. Then cells were lysed with solubilization buffer (Hank's Balanced Salt Solution (HBSS, Sigma #H6648), 0.5% Sodium dodecyl sulfate 0.5% (SDS, Sigma #L7390-500G, Lote: 078K0102) and 20% Glycerol (Sigma Aldrich, #G2025) for 30 minutes at RT. 75 μL aliquots were taken from each well and transferred to a 96-well flexiplate (Perkin Elmer #1450-401) and mixed with 100 μL of scintillation cocktail (Optiphase supermix, PerkinElmer, #1200-439). Plates are shaken for 60 minutes and radioactivity was measured in a beta scintillation counter (Microbeta Trilux, Perkin Elmer).

SMILES: CC(=O)C1=C(C)NC(C(F)(F)F)=C(C(=O)OCc2ccccc2)C1c1csc2ncccc12 (stereo not drawn) [Example C56, Benzyl 5-acetyl-6-methyl-4-(thieno[2,3-b]pyridin-3-yl)-2-(trifluoromethyl)-1,4-dihydropyridine-3-carboxylate]
- IC50 [1]: < 100 nM
- IC50 [2]: 100 to 1000 nM

SMILES: CC(=O)C1=C(C)NC(C)=C(C(=O)OC2CCC(C)(C)CC2)C1c1csc2ncccc12 (stereo not drawn) [Example C76, 4,4-dimethylcyclohexyl 5-acetyl-2,6-dimethyl-4-(thieno[2,3-b]pyridin-3-yl)-1,4-dihydropyridine-3-carboxylate]
- IC50 [1]: < 100 nM
- IC50 [2]: ≥ 1000 nM

SMILES: CC(=O)C1=C(C)NC(C)=C(C(=O)OC2CCOCC2)C1c1csc2ncccc12 (stereo not drawn) [Example C78, Tetrahydro-2H-pyran-4-yl 5-acetyl-2,6-dimethyl-4-(thieno[2,3-b]pyridin-3-yl)-1,4-dihydropyridine-3-carboxylate]
- IC50 [1]: 100 to 1000 nM
- IC50 [2]: ≥ 1000 nM

SMILES: COC(=O)C1=C(C#N)NC(C2CC2)=C(C(=O)OC)C1c1csc2c(C#N)cccc12 (stereo not drawn) [Example C112, Dimethyl 2-cyano-4-(7-cyanobenzo[b]thiophen-3-yl)-6-cyclopropyl-1,4-dihydropyridine-3,5-dicarboxylate]
- IC50 [1]: < 100 nM
- IC50 [2]: 100 to 1000 nM

SMILES: COC(=O)C1=C(C)NC(C#N)=C(C(=O)OC)C1c1csc2c(C#N)cccc12 (stereo not drawn) [Example C113, Dimethyl 2-cyano-4-(7-cyanobenzo[b]thiophen-3-yl)-6-methyl-1,4-dihydropyridine-3,5-dicarboxylate]
- IC50 [1]: < 100 nM
- IC50 [2]: 100 to 1000 nM

SMILES: COC(=O)C1=C(C)NC(CO)=C(C(=O)OC)C1c1csc2c(C#N)cccc12 (stereo not drawn) [Example C120, Dimethyl 4-(7-cyanobenzo[b]thiophen-3-yl)-2-(hydroxymethyl)-6-methyl-1,4-dihydropyridine-3,5-dicarboxylate]
- IC50 [1]: < 100 nM
- IC50 [2]: 100 to 1000 nM

SMILES: CC(=O)C1=C(C(=O)OCC2CC2)C(c2csc3c(C#N)cccc23)C(C(C)=O)=C(C)N1 (stereo not drawn) [Example C123, Cyclopropylmethyl 2,5-diacetyl-4-(7-cyanobenzo[b]thiophen-3-yl)-6-methyl-1,4-dihydropyridine-3-carboxylate]
- IC50 [1]: < 100 nM
- IC50 [2]: < 100 nM

The next lines start with the values.

- IC50 [1]: < 100 nM
- IC50 [2]: ≥ 1000 nM
SMILES: COC(=O)C1=C(C)NC(N)=C(C(=O)OCc2ccc(F)cc2)C1c1csc2c(C#N)cccc12 (stereo not drawn) [Example D22, 3-(4-fluorobenzyl) 5-methyl 2-amino-4-(7-cyanobenzo[b]thiophen-3-yl)-6-methyl-1,4-dihydropyridine-3,5-dicarboxylate]

- IC50 [1]: < 100 nM
- IC50 [2]: 100 to 1000 nM
SMILES: COC(=O)C1=C(C2CC2)NC(N)=C(C(=O)OCc2ccc(F)cc2)C1c1csc2c(C#N)cccc12 (stereo not drawn) [Example D23, 3-(4-fluorobenzyl) 5-methyl 2-amino-4-(7-cyanobenzo[b]thiophen-3-yl)-6-cyclopropyl-1,4-dihydropyridine-3,5-dicarboxylate]

- IC50 [1]: < 100 nM
- IC50 [2]: ≥ 1000 nM
SMILES: CC1=C(C#N)C(c2csc3c(C#N)cccc23)C(C(=O)OCc2ccc(F)cc2)=C(N)N1 (stereo not drawn) [Example D25, 4-Fluorobenzyl 2-amino-5-cyano-4-(7-cyanobenzo[b]thiophen-3-yl)-6-methyl-1,4-dihydropyridine-3-carboxylate]

- IC50 [1]: 100 to 1000 nM
- IC50 [2]: 100 to 1000 nM
SMILES: N#CC1=C(N)NC(C2CC2)=C(C(=O)OCC2CC2)C1c1csc2c(C#N)cccc12 (stereo not drawn) [Example D26, Cyclopropylmethyl 6-amino-5-cyano-4-(7-cyanobenzo[b]thiophen-3-yl)-2-cyclopropyl-1,4-dihydropyridine-3-carboxylate]

- IC50 [1]: < 100 nM
- IC50 [2]: 100 to 1000 nM
SMILES: CC(=O)C1=C(C)NC(N)=C(C(=O)OC2CCCCC2)C1c1csc2c(C#N)cccc12 (stereo not drawn) [Example D29, Cyclohexyl 5-acetyl-2-amino-4-(7-cyanobenzo[b]thiophen-3-yl)-6-methyl-1,4-dihydropyridine-3-carboxylate]

- IC50 [1]: < 100 nM
- IC50 [2]: 100 to 1000 nM
SMILES: COC(=O)C1=C(C)NC(N)=C(C(=O)OCC2CCC2)C1c1csc2c(C#N)cccc12 (stereo not drawn) [Example D33, 3-(Cyclobutylmethyl) 5-methyl 2-amino-4-(7-cyanobenzo[b]thiophen-3-yl)-6-methyl-1,4-dihydropyridine-3,5-dicarboxylate]

- IC50 [1]: < 100 nM
- IC50 [2]: 100 to 1000 nM
SMILES: COC(=O)C1=C(C)NC(N)=C(C(=O)OCC2CC(F)(F)C2)C1c1csc2c(C#N)cccc12 (stereo not drawn) [Example D34, 3-((3,3-Difluorocyclobutyl)methyl) 5-methyl 2-amino-4-(7-cyanobenzo[b]thiophen-3-yl)-6-methyl-1,4-dihydropyridine-3,5-dicarboxylate]

- IC50 [1]: 100 to 1000 nM
- IC50 [2]: 100 to 1000 nM
SMILES: CC1=C(C(N)=O)C(c2csc3c(C#N)cccc23)C(C(=O)OCC2CC2)=C(N)N1 (stereo not drawn) [Example D35, Cyclopropylmethyl 2-amino-5-carbamoyl-4-(7-cyanobenzo[b]thiophen-3-yl)-6-methyl-1,4-dihydropyridine-3-carboxylate]

- IC50 [1]: < 100 nM
- IC50 [2]: 100 to 1000 nM
SMILES: COC(=O)C1=C(C)NC(N)=C(C(=O)OCC2CC2(F)F)C1c1csc2c(C#N)cccc12 (stereo not drawn) [Example D36, 3-((2,2-Difluorocyclopropyl)methyl) 5-methyl 2-amino-4-(7-cyanobenzo[b]thiophen-3-yl)-6-methyl-1,4-dihydropyridine-3,5-dicarboxylate]

- IC50 [1]: < 100 nM
- IC50 [2]: 100 to 1000 nM
SMILES: COC(=O)C1=C(C2CC2)NC(N)=C(C(=O)OCC2CC2(F)F)C1c1csc2c(C#N)cccc12 (stereo not drawn) [Example D38, 3-((2,2-Difluorocyclopropyl)methyl) 5-methyl 2-amino-4-(7-cyanobenzo[b]thiophen-3-yl)-6-cyclopropyl-1,4-dihydropyridine-3,5-dicarboxylate]

- IC50 [1]: < 100 nM
- IC50 [2]: 100 to 1000 nM
SMILES: COC(=O)C1=C(C)NC(N)=C(C(=O)OCC2CC2)C1c1csc2c(C#N)ccc(F)c12 (stereo not drawn) [Example D40, 3-(cyclopropylmethyl) 5-methyl 2-amino-4-(7-cyano-4-fluorobenzo[b]thiophen-3-yl)-6-methyl-1,4-dihydropyridine-3,5-dicarboxylate]
